Reference: patent US20020137929A1, “1 - (3-heterocyclylphenyl) isothiourea, -isourea, -guanidine and -amidine herbicidal agents” (Intellectual Property Department, BASF Aktiengesellschaft, priority 1998, published 2002)

What was measured:
[1] = system: TRZAWR (Wheat, Winter, cv Riband); experiment: Preemergence herbicidal evaluation; format: in vivo, Triticum aestivum; settings: rated 4-5 weeks after treatment; for TRZAWR rating: preemergence, 0-9 scale
Text: (§1) Results of herbicide evaluation are expressed on a rating scale (0-9). The scale is based upon a visual observation of plant stand, vigor, malformation, size, chlorosis and overall plant appearance as compared with a control.
(§2) The preemergence herbicidal activity of the test compounds of the present invention is exemplified by the following tests in which the seeds of a variety of monocotyledonous and dicotyledonous plants are separately mixed with potting soil and planted on top of approximately one inch of soil in separate pint cups. After planting, the cups are sprayed with the selected aqueous acetone solution containing test compound in sufficient quantity to provide the equivalent of about 0.0156 to 0.500 kg per hectare of test compound per cup. The treated cups are then placed on greenhouse benches, watered and cared for in accordance with conventional greenhouse procedures. From four to five weeks after treatment, the tests are terminated and each cup is examined and rated according to the rating system provided in Example 37.
(§3) The compounds evaluated are reported by compound number given in Example 37.

ECHCG (Barnyardgrass) = experiment: Preemergence herbicidal evaluation; format: in vivo, Echinochloa crus-galli; settings: rated 4-5 weeks after treatment; for ECHCG rating: preemergence, 0-9 scale
Text: as §1, §2, §3

[2] = system: IPOHE (Morningglory, Ivyleaf); experiment: Postemergence herbicidal evaluation; format: in vivo, Ipomoea hederacea; settings: postemergence
Procedure, shortened: (§4)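 Herbicidal effect was judged by eye on a 0–9 scale covering stand, vigor, deformity, size and chlorosis, compared with controls, four to five weeks after seedlings about two weeks old were sprayed (40 psi, ~0.0156–0.500 kg/ha).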

ORYSAT (Rice, Tebonnet) = experiment: Preemergence herbicidal evaluation; format: in vivo, Oryza sativa, (L.) Tebonnet; settings: rated 4-5 weeks after treatment; for ORYSAT rating: preemergence, 0-9 scale
Text: as §1, §2, §3

[3] = system: TRZAWR (Wheat, Winter, cv Riband); experiment: Postemergence herbicidal evaluation; format: in vivo, Triticum aestivum; settings: postemergence
Procedure, shortened: as §4

SETVI (Foxtail, Green) = experiment: Preemergence herbicidal evaluation; format: in vivo, Setaria viridis; settings: rated 4-5 weeks after treatment; for SETVI rating: preemergence, 0-9 scale
Procedure, shortened: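 Test compound, dissolved in aqueous acetone, was sprayed over planted soil cups at an equivalent of about 0.0156 to 0.500 kg/ha; seeds had been mixed with potting soil. Greenhouse growth followed, with visual 0-9 scoring of injury at four to five weeks.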

MOOVA (Monochoria) = experiment: Preemergence weed control under flooded paddy conditions; format: in vivo, Monochoria vaginalis; settings: rated 3-4 weeks after treatment
Procedure, shortened: (§5)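 Ratings on a 0-9 visual scale cover stand, vigor, malformation, size, chlorosis and overall appearance relative to a control, taken three to four weeks post-treatment. Application was into flood water over freshly sown silt loam at roughly 0.0313 to 0.500 kg/ha.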

ABUTH (Velvetleaf) = experiment: Postemergence herbicidal evaluation; format: in vivo, Abutilon theophrasti; settings: postemergence
Procedure, shortened: as §4

[4] = system: CHEAL (Lambsquarters, Common); experiment: Preemergence herbicidal evaluation; format: in vivo, Chenopodium album; settings: rated 4-5 weeks after treatment; for CHEAL rating: preemergence, 0-9 scale
Text: as §1, §2, §3

[5] = system: ECHORC (Watergrass (Calif.)); experiment: Preemergence weed control under flooded paddy conditions; format: in vivo, Echinochloa oryzoides; settings: rated 3-4 weeks after treatment
Procedure, shortened: as §5

[6] = system: IPOHE (Morningglory, Ivyleaf); experiment: Preemergence herbicidal evaluation; format: in vivo, Ipomoea hederacea; settings: rated 4-5 weeks after treatment; for IPOHE rating: preemergence, 0-9 scale
Text: as §1, §2, §3

C=CCOC(=O)CN1C(=O)CSC1=Nc1cc(-n2c(=O)cc(C(F)(F)F)n(C)c2=O)c(F)cc1Cl [Compound 106, Allyl 2-{{2-chloro-5-[3,6-dihydro-3-methyl-2,6-dioxo-4-(trifluoromethyl)-1(2H)-pyrimidinyl]-4-fluorophenyl}imino}-4-oxo-3-thiazolidineacetate]
TRZAWR rating ([1]; 0.0313 kg/ha): 0.0
TRZAWR rating ([1]; 0.0625 kg/ha): 2.0
TRZAWR rating ([1]; 0.1250 kg/ha): 3.0
TRZAWR rating ([1]; 0.2500 kg/ha): 5.0
Preemergence herbicidal rating TRZAWR ([1]; rate 0.0156 kg/ha): 0.0
ECHCG rating (ECHCG (Barnyardgrass); 0.0313 kg/ha): 1.0
ECHCG rating (ECHCG (Barnyardgrass); 0.0625 kg/ha): 1.5
ECHCG rating (ECHCG (Barnyardgrass); 0.1250 kg/ha): 2.0
ECHCG rating (ECHCG (Barnyardgrass); 0.2500 kg/ha): 7.0
Preemergence herbicidal rating ECHCG (ECHCG (Barnyardgrass); rate 0.0156 kg/ha): 0.0
herbicidal rating IPOHE ([2]; rate 0.0158 kg/ha): 9.0
herbicidal rating IPOHE ([2]; rate 0.0315 kg/ha): 9.0
herbicidal rating IPOHE ([2]; rate 0.0630 kg/ha): 9.0
ORYSAT rating (ORYSAT (Rice, Tebonnet); 0.0313 kg/ha): 1.0
ORYSAT rating (ORYSAT (Rice, Tebonnet); 0.0625 kg/ha): 2.0
ORYSAT rating (ORYSAT (Rice, Tebonnet); 0.1250 kg/ha): 2.5
ORYSAT rating (ORYSAT (Rice, Tebonnet); 0.2500 kg/ha): 5.0
Preemergence herbicidal rating ORYSAT (ORYSAT (Rice, Tebonnet); rate 0.0156 kg/ha): 1.5
herbicidal rating TRZAWR ([3]; rate 0.0158 kg/ha): 2.5
herbicidal rating TRZAWR ([3]; rate 0.0315 kg/ha): 3.0
herbicidal rating TRZAWR ([3]; rate 0.0630 kg/ha): 4.5
SETVI rating (SETVI (Foxtail, Green); 0.0313 kg/ha): 0.5
SETVI rating (SETVI (Foxtail, Green); 0.0625 kg/ha): 4.5
SETVI rating (SETVI (Foxtail, Green); 0.1250 kg/ha): 9.0
SETVI rating (SETVI (Foxtail, Green); 0.2500 kg/ha): 9.0
Preemergence herbicidal rating SETVI (SETVI (Foxtail, Green); rate 0.0156 kg/ha): 0.0
MOOVA herbicidal effect rating (MOOVA (Monochoria); 0.0313 kg/ha): 9.0
MOOVA herbicidal effect rating (MOOVA (Monochoria); 0.0625 kg/ha): 9.0
MOOVA herbicidal effect rating (MOOVA (Monochoria); 0.1250 kg/ha): 9.0
MOOVA herbicidal effect rating (MOOVA (Monochoria); 0.2500 kg/ha): 9.0
herbicidal rating ABUTH (ABUTH (Velvetleaf); rate 0.0158 kg/ha): 9.0
herbicidal rating ABUTH (ABUTH (Velvetleaf); rate 0.0315 kg/ha): 9.0
herbicidal rating ABUTH (ABUTH (Velvetleaf); rate 0.0630 kg/ha): 9.0
CHEAL rating ([4]; 0.0313 kg/ha): 9.0
CHEAL rating ([4]; 0.0625 kg/ha): 9.0
CHEAL rating ([4]; 0.1250 kg/ha): 9.0
CHEAL rating ([4]; 0.2500 kg/ha): 9.0
Preemergence herbicidal rating CHEAL ([4]; rate 0.0156 kg/ha): 8.0
ECHORC herbicidal effect rating ([5]; 0.0313 kg/ha): 2.0
ECHORC herbicidal effect rating ([5]; 0.0625 kg/ha): 4.0
ECHORC herbicidal effect rating ([5]; 0.1250 kg/ha): 5.0
ECHORC herbicidal effect rating ([5]; 0.2500 kg/ha): 7.0
IPOHE rating ([6]; 0.0313 kg/ha): 2.5
IPOHE rating ([6]; 0.0625 kg/ha): 7.0
IPOHE rating ([6]; 0.1250 kg/ha): 7.5
IPOHE rating ([6]; 0.2500 kg/ha): 9.0
Preemergence herbicidal rating IPOHE ([6]; rate 0.0156 kg/ha): 2.0
